Test results reported in patent US20060142315A1, “Substituted biaryl piperazinyl-pyridine analogues” (priority 2003, published 2006).
Where two headings read alike, the source gives them in different places.

Key:
[1] = target: T1, T. gondii (Tg) dihydrofolate reductase (Toxoplasma gondii, UniProt Q07422); format: biochemical
[2] = target: M. avium (Ma) dihydrofolate reductase (Mycobacterium avium, UniProt O30463); assay: biochemical
rat liver DHFR = target: T2, rat liver DHFR (Rattus norvegicus, UniProt Q920D2); assay: Standardized spectrophotometric DHFR inhibition assay, rat liver enzyme; format: biochemical
T2 construct: rat liver DHFR; from tissue; host or cells: rat liver
T2 sequence (Q920D2 1-187): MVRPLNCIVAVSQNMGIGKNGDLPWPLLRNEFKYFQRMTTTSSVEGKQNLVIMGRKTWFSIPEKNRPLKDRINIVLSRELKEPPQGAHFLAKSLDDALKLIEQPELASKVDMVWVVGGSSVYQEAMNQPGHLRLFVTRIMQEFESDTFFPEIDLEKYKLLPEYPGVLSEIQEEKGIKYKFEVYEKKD

[3] = target: P. carinii (Pc) dihydrofolate reductase (Pneumocystis carinii, UniProt P16184); assay: Standardized spectrophotometric DHFR inhibition assay, P. carinii enzyme; format: biochemical; details: for IC50: Pc DHFR
P. carinii (Pc) dihydrofolate reductase, sequence (P16184 whole entry): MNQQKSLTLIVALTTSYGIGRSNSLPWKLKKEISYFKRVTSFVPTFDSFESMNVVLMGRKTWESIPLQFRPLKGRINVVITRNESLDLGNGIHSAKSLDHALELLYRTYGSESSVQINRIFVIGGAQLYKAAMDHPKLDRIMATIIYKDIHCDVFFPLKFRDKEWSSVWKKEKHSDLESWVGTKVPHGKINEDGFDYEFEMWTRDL

[4] = target: T1, T. gondii (Tg) dihydrofolate reductase; details: cited from earlier work; for IC50: read-out: IC50 against Tg DHFR
[5] = relative to rat liver DHFR, 95% confidence limits in parentheses

M. avium (Ma) dihydrofolate reductase, sequence (O30463 1-181): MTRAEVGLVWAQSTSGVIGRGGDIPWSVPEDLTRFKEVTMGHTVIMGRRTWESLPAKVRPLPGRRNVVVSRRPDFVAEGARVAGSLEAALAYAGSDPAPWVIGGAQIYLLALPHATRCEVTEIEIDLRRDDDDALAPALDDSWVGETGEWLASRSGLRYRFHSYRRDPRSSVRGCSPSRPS
T1 sequence (Q07422 whole entry): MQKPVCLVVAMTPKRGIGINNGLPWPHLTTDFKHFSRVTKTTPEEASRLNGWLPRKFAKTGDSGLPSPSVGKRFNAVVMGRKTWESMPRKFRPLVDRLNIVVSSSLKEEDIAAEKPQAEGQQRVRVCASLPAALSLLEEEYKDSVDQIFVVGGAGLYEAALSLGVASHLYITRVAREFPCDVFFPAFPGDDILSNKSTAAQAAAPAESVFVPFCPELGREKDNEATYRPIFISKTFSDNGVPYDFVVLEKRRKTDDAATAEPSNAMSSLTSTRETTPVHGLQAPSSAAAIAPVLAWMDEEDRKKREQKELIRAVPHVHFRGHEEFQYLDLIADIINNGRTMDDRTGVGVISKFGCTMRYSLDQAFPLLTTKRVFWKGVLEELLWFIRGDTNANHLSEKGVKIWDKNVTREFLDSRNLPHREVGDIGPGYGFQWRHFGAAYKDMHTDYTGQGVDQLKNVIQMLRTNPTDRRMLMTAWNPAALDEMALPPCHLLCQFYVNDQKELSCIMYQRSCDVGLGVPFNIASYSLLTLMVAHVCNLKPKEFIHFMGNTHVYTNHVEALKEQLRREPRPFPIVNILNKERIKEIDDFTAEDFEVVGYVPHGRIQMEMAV

Work on `COc1ccc(OCCCCC(=O)O)cc1Cc1cnc(N)nc1N` [Compound 1b, reference compound] yielded an IC50 [1] of 0.11 µM and an IC50 ([2]; Ma DHFR) of 0.058 µM.

Work on `COc1ccc(C#CCCC(=O)O)cc1Cc1cnc(N)nc1N` [Compound 2] yielded an IC50 ([1]; Tg DHFR) of 0.097 µM.

Molecule `COc1ccc(C#CCCCC(=O)O)cc1Cc1cnc(N)nc1N` [Compound 3] has an IC50 [1] of 0.032 µM, an IC50 (rat liver DHFR) of 2.2 µM and an IC50 ([2]; Ma DHFR) of 0.007 µM. For the same molecule, the melting point was 121 to 124 °C and the IC50 [3] was 0.028 µM.

Molecule `COc1ccc(C#CCCCCC(=O)O)cc1Cc1cnc(N)nc1N` [Compound 4] has an IC50 [1] of 0.072 µM, an IC50 (rat liver DHFR) of 25 µM and an IC50 [2] of 0.041 µM. The melting point was 187 to 189 °C and the IC50 [3] was 0.87 µM.

Work on `COc1ccc(CCCCC(=O)O)cc1Cc1cnc(N)nc1N` [Compound 5] yielded an IC50 ([1]; Tg DHFR) of 0.058 µM, an IC50 (rat liver DHFR) of 3.2 µM and an IC50 ([2]; Ma DHFR) of 0.035 µM. It also gave a melting point of 134 to 137 °C and an IC50 [3] of 0.15 µM.

Molecule `COc1ccc(CCCCCC(=O)O)cc1Cc1cnc(N)nc1N` [Compound 6] has an IC50 ([1]; Tg DHFR) of 0.0084 µM, an IC50 (rat liver DHFR) of 4.1 µM and an IC50 ([2]; Ma DHFR) of 0.016 µM. For the same molecule, the IC50 [3] was 0.15 µM.

Molecule `COc1ccc(CCCCCCC(=O)O)cc1Cc1cnc(N)nc1N` [Compound 7] has an IC50 [1] of 0.03 µM, an IC50 (rat liver DHFR) of 4.6 µM and an IC50 [2] of 0.089 µM. It also gave an IC50 [3] of 0.53 µM.

`COc1ccc(OCc2cccc(C(=O)O)c2)cc1Cc1cnc(N)nc1N` [Compound 8, 2,4-Diamino-5-[2′-methoxy-5′-(3″-carboxybenzyloxy)benzyl]pyrimidine] gave an IC50 [1] of 0.6 µM, an IC50 (rat liver DHFR) of 19 µM and an IC50 [2] of 0.12 µM. The IC50 [3] was 0.89 µM.

Work on `COc1ccc(OCc2ccc(C(=O)O)cc2)cc1Cc1cnc(N)nc1N` [Compound 9, 2,4-Diamino-5-(2′-methoxy-5′-(4″-carboxybenzyloxy)benzyl]pyrimidine] yielded an IC50 ([1]; Tg DHFR) of 2 µM, an IC50 (rat liver DHFR) of 21 µM and an IC50 ([2]; Ma DHFR) of 0.06 µM.

For `COc1ccc(C#CCOc2ccccc2C(=O)O)cc1Cc1cnc(N)nc1N` [Compound 10, 2,4-Diamino-5-[2′-methoxy-5′-[3-(2″-carboxyphenoxy)propyn-1-yl]benzyl]pyrimidine], the IC50 ([1]; Tg DHFR) was 0.5 µM, the “Selectivity Index (SI) T. gondii” value [1, 5] was 13 (9.3-17) and the IC50 (rat liver DHFR) was 6.2 µM. The IC50 [2] was 0.036 µM, the “Selectivity Index (SI) M. avium” value [2] was 170 (130-230) and the IC50 [3] was 2.3 µM. The “Selectivity Index (SI) P. carinii” value [3, 5] was 2.7 (2.1-3.5).

In the case of `COc1ccc(C#CCOc2cccc(C(=O)O)c2)cc1Cc1cnc(N)nc1N` [Compound 11, 2,4-Diamino-5-[2′-methoxy-5′-[3-(3″-carboxyphenoxy)-1-propynyl]benzyl]pyrimidine], the IC50 [1] is reported as 1.6 µM, the IC50 (rat liver DHFR) is reported as 14 µM and the IC50 [2] is reported as 0.057 µM. The IC50 [3] was 5.6 µM.

In the case of `CCc1nc(N)nc(N)c1-c1ccc(Cl)c(N=NN2CCOCC2)c1` [Compound 37], the “SI against Tg DHFR” value [4] is given as 37: R^1R^2 = morpholino (IC50 = 0.19 μM, SI = 140)^18 and the IC50 [4] is given as 0.19 µM.

For `CCc1nc(N)nc(N)c1-c1ccc(Cl)c(N=NN(C)C)c1` [Compound 38], the IC50 ([4]; literature compounds of Table 2, standardized assay conditions) is listed as 0.31 µM and the “SI against Tg DHFR” value ([4]; literature compounds of Table 2, Tg versus rat DHFR) is listed as 61.

For `Nc1nc(N)c2nc(CN3c4ccccc4C=Cc4ccccc43)cnc2n1` [Compound 40], the “SI against Tg DHFR” value [4] is given as 40: R = N-Dibenz[b,f]azepinyl (IC50 = 0.043 μM, SI = 102)^3g.

For `COc1cc(Cc2cnc(N)nc2N)cc(C#CCCCC(=O)O)c1OC` [Compound 49, 2,4-Diamino-5-[3′,4′-dimethoxy-5′-(5-carboxy-1-pentynyl)benzyl]-pyrimidine], the IC50 (rat liver DHFR) was 5000 µM, the IC50 [2] was 0.0024 µM and the IC50 [3] was 0.001 µM.
